Data reported in ChEMBL document CHEMBL1201862, “PubChem BioAssay data set” (2004).
Active and inactive are the calls of the source. Cut-off read from the data, not from the text of the source: actives have a measured IC50 and inactives only a lower limit.

Target: Envelope glycoprotein gp160 (Human immunodeficiency virus 1, UniProt Q6QLK5)
Assay: inhibitors of HIV fusion peptide binding, primary screen, biochemical, uHTS, fluorescence dequenching (AID 1986)

Envelope glycoprotein gp160, sequence (Q6QLK5 whole entry, the tested form may be a part): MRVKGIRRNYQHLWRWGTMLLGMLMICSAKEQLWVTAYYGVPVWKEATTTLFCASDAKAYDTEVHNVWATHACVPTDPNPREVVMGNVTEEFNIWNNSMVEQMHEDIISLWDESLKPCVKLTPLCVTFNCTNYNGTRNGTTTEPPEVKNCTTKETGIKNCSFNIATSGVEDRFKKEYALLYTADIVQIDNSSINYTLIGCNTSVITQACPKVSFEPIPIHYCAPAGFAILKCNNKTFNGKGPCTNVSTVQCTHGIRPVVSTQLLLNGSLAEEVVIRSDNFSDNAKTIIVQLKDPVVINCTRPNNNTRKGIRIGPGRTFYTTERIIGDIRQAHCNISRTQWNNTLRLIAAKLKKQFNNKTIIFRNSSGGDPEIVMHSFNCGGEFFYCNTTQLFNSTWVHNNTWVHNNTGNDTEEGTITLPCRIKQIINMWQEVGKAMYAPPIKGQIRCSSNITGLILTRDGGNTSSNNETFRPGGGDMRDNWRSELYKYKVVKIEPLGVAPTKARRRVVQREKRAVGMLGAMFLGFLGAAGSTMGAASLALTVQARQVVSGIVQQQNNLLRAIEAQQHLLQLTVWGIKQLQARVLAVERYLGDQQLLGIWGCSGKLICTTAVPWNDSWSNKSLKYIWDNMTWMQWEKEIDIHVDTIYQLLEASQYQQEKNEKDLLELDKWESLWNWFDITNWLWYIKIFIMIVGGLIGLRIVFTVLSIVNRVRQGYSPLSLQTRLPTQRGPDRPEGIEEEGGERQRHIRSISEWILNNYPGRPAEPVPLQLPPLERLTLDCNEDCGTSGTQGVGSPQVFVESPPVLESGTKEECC

Row | Structure (SMILES) | IC50
1 | CCCCN1C(=O)/C(=C/C=C/c2ccco2)C(=O)NC1=S | 5.14 µM (active)
2 | CC(/C=C1\SC(=S)N(CCCC(=O)Nc2ccc(C(=O)O)cc2)C1=O)=C\c1ccccc1 | 17.2 µM (active)
